20 compounds from ChEMBL document CHEMBL3044846, “Synthesis and structureactivity relationships of serotonin derivatives effect on -glucosidase inhibition” (Med Chem Res, 2012) can be followed below.

pIC50, pKi: −log10 of the molar value. Active and inactive are the calls of the source. The rule behind the calls is not given here.

In experiment [1] the target is T1, Alpha-glucosidase MAL62 (Saccharomyces cerevisiae, UniProt P07265). The experiment is described as follows: (§1) Inhibition of yeast alpha-glucosidase using p-nitrophenyl-alpha-D-glucopyranoside as substrate preincubated for 10 min before substrate addition and measured after 10 min by spectrophotometry.
T1 sequence (P07265 whole entry): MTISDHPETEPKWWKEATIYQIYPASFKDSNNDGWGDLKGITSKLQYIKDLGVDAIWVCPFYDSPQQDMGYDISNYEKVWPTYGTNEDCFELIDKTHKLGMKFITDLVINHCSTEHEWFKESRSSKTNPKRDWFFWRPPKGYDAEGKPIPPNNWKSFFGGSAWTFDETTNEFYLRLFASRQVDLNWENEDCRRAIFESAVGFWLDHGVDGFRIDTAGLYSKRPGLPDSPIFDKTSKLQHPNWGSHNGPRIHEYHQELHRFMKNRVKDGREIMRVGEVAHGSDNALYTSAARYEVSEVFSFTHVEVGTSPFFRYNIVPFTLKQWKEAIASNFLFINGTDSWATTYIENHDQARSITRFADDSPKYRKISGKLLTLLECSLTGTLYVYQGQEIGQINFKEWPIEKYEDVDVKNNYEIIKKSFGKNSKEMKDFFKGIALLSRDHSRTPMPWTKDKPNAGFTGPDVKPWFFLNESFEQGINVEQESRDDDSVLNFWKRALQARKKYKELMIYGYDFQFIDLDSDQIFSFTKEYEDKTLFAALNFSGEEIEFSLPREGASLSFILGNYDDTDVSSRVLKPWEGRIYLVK
For experiment [2], the target named is Alpha-glucosidase MAL62 (Saccharomyces cerevisiae) (UniProt P07265). The experiment is described as follows: Inhibition of yeast alpha-glucosidase using p-nitrophenyl-alpha-D-glucopyranoside as substrate preincubated at 300 uM for 10 min before substrate addition and measured after 10 min by spectrophotometry.
Chain of Alpha-glucosidase MAL62 (Saccharomyces cerevisiae) (P07265 whole entry): as above
The target is the same in experiment [3]. Described as §1.
Experiment [4] addresses T1, Alpha-glucosidase MAL62. The experiment is described as follows: Uncompetitive inhibition of yeast alpha-glucosidase by Lineweaver-Burk plot analysis.
The target in experiment [5] is Alpha-glucosidase MAL62 (Saccharomyces cerevisiae) (UniProt P07265). Put plainly: Competitive inhibition of yeast alpha-glucosidase by Lineweaver-Burk plot analysis.
Experiment [6] addresses T1, Alpha-glucosidase MAL62. The experiment is described as follows: Competitive inhibition of yeast alpha-glucosidase by Dixon plot analysis.
Experiment [7] deals with T1, Alpha-glucosidase MAL62. Put plainly: Mixed-type inhibition of yeast alpha-glucosidase by Lineweaver-Burk plot analysis.

`O=C(O)/C=C/c1ccc(O)c(O)c1` [CAFFEIC ACID]: the pIC50 against Alpha-glucosidase MAL62 [1] was under 3.52. Also, the inhibition in experiment [2] was found to be 10.2%.
`O=C(O)/C=C/c1ccccc1` [CINNAMIC ACID] showed a negative-log IC50 (pIC50) on Alpha-glucosidase MAL62 [1] of under 3.52. Besides, the inhibition in experiment [2] stood at 4.5%.
Regarding `O=C(O)/C=C/c1ccc(O)cc1` [COUMARIC ACID], the pIC50 against Alpha-glucosidase MAL62 [1] is under 3.52. Also, the inhibition in experiment [2] was 4.9%.
`OC[C@H]1NC[C@H](O)[C@@H](O)[C@@H]1O` [DUVOGLUSTAT] showed a negative logarithm of the IC50 (pIC50) on Alpha-glucosidase MAL62 [1] of 3.56.
The same measure, in the same setting: the same measure for `COc1cc(/C=C/C(=O)O)ccc1O` [FERULATE]: under 3.52.
In the case of `COc1ccc(/C=C/C(=O)NCCc2c[nH]c3ccc(O)cc23)cc1OC` [N-3,4-DIMETHOXY CINNAMOYL SEROTONIN], the pIC50 against Alpha-glucosidase MAL62 [1] was under 3.52. In addition, the inhibition entry in experiment [3] is “Dose-dependent effect”.
On Alpha-glucosidase MAL62 [4], `O=C(/C=C/c1ccc(O)c(O)c1)NCCc1c[nH]c2ccc(O)cc12` [N-CAFFEOYLSEROTONIN] showed a pKi of 4.19. The compound further had a pIC50 on Alpha-glucosidase MAL62 [1] of 4.32. Besides, the inhibition result in experiment [3] is “Dose-dependent effect”.
`O=C(/C=C/c1ccccc1)NCCc1c[nH]c2ccc(O)cc12` [N-CINNAMOYL SEROTONIN] gave a pIC50 at Alpha-glucosidase MAL62 [1] of 4.09. Moreover, the inhibition entry in experiment [3] is “Dose-dependent effect”. The inhibition result in experiment [5] is “Active”. The compound further had a pKi at Alpha-glucosidase MAL62 [6] of 3.88.
Take `O=C(CCc1ccc(O)cc1)NCCc1c[nH]c2ccc(O)cc12` [N-DIHYDRO-P-COUMAROYLSEROTONIN]: on Alpha-glucosidase MAL62 [1], the pIC50 was under 3.52.
Still for that read-out and setting: then `O=C(CCc1ccc(O)c(O)c1)NCCc1c[nH]c2ccc(O)cc12` [N-DIHYDROCAFFEOYL SEROTONIN], with under 3.52; and `O=C(CCc1ccccc1)NCCc1c[nH]c2ccc(O)cc12` [N-DIHYDROCINNAMOYL SEROTONIN], with under 3.52; and `COc1cc(CCC(=O)NCCc2c[nH]c3ccc(O)cc23)ccc1O` [N-DIHYDROFERULOYL SEROTONIN], with under 3.52.
Same read-out and setting: then `COc1cc(CCC(=O)NCCc2c[nH]c3ccc(O)cc23)cc(OC)c1O` [N-DIHYDROSINAPOYL SEROTONIN], with under 3.52.
For the compound `COc1cc(/C=C/C(=O)NCCc2c[nH]c3ccc(O)cc23)ccc1O` [N-FERULOYL SEROTONIN], the pKi on Alpha-glucosidase MAL62 [7] is 3.89. The compound also gave a pIC50 against Alpha-glucosidase MAL62 [1] of 4.00. Further, the inhibition entry in experiment [3] was “Dose-dependent effect”.
Regarding `COc1ccc(/C=C/C(=O)NCCc2c[nH]c3ccc(O)cc23)cc1O` [N-ISOFERULOYL SEROTONIN], on Alpha-glucosidase MAL62 [1], the negative logarithm of the IC50 (pIC50) was under 3.52. In experiment [3], the inhibition entry was “Dose-dependent effect”.
Regarding `O=C(/C=C/c1ccc(O)cc1)NCCc1c[nH]c2ccc(O)cc12` [N-P-COUMAROYL SEROTONIN], the pKi on Alpha-glucosidase MAL62 [4] is 4.09. This compound showed a negative-log IC50 (pIC50) against Alpha-glucosidase MAL62 [1] of 4.33. The inhibition entry in experiment [3] is “Dose-dependent effect”.
`COc1ccc(/C=C/C(=O)NCCc2c[nH]c3ccc(O)cc23)cc1` [N-P-METHOXY CINNAMOYL SEROTONIN]: the pIC50 against Alpha-glucosidase MAL62 [1] is under 3.52. For the same compound, the inhibition entry in experiment [3] is “Dose-dependent effect”.
With `COc1cc(/C=C/C(=O)NCCc2c[nH]c3ccc(O)cc23)cc(OC)c1O` [N-SINAPOYL SEROTONIN], at Alpha-glucosidase MAL62 [7], the pKi is 3.95. Further, the pIC50 against Alpha-glucosidase MAL62 [1] was 4.18. The inhibition entry in experiment [3] is “Dose-dependent effect”.
`NCCc1c[nH]c2ccc(O)cc12` [SEROTONIN]: the pIC50 against Alpha-glucosidase MAL62 [1] is under 3.52. Further, the inhibition in experiment [2] stood at 25.6%.
`COc1cc(/C=C/C(=O)O)cc(OC)c1O` [SINAPINATE] had a negative-log IC50 (pIC50) against Alpha-glucosidase MAL62 [1] of 3.84.
